Data from article PMC5944028, “Nonclinical and clinical pharmacological characterization of the potent and selective cathepsin K inhibitor MIV-711” (Journal of Translational Medicine, 2018).
pKi: −log10 of the molar value.

Assays:
[1] = system: urine CTX-I; test: Monkey urine CTX-I, multiple doses; type: in vivo, cynomolgus monkeys (Macaca fascicularis)
Protocol: Biomarkers such as NTX-I (bone resorption) and CTX-II (cartilage degradation) are typically measured in urine. Additional experiments in which urine was collected were therefore performed. In these experiments, four cynomolgus monkeys (Macaca fascicularis) were used (Aptuit, Edinburgh, UK). The animals were healthy young females weighing 3.5–4 kg. Animals were dosed with vehicle or MIV-711 via oral gavage at a dose volume of 5 mL/kg between 7:30 and 8:30 a.m. Animals first received vehicle via oral gavage for five consecutive days. After a washout period, the animals then received MIV-711 (30 µmol/kg) via oral gavage for five consecutive days.
Urine was collected between 8–12 a.m., 12 a.m.–4 p.m. and 4 p.m.–8 a.m. on Day 1 and Day 5 of respective treatment. Biomarkers were measured in each urine sample, corrected for creatinine, and the mean value of the three samples on Day 1 and Day 5 was calculated. The effect of MIV-711 was evaluated by comparing biomarkers in urine samples collected on Day 1 and Day 5 with respective vehicle sample. [drawing 3]
The quantification of CTX-I in monkey plasma samples and human serum samples was performed using a commercially available kit (Serum CrossLaps ELISA, IDS Nordic, Herlev, Denmark). The levels of CTX-I in monkey urine samples were measured using a commercially available kit (Urine BETA CrossLaps ELISA, IDS Nordic). […]

[2] = system: plasma CTX-I; test: Monkey plasma CTX-I, repeat oral doses; type: in vivo, cynomolgus monkeys (Macaca fascicularis)
Protocol: Repeat dosing experiments were performed in four male monkeys from the group outlined above (Covance). Vehicle or MIV-711 (30 µmol/kg) was given via oral gavage once daily for 5 days between 7:30 and 8:30 a.m. Plasma for CTX-I measurements was collected on Day 1 at baseline, 1, 2, 4, 8 and 12 h after dose, on Days 2, 3 and 4 early in the morning before next dose (i.e. at trough), and on Day 5 at trough, 1, 2, 4, 8, 12 and 24 h after dose. [drawing 2]
The quantification of CTX-I in monkey plasma samples and human serum samples was performed using a commercially available kit (Serum CrossLaps ELISA, IDS Nordic, Herlev, Denmark). The levels of CTX-I in monkey urine samples were measured using a commercially available kit (Urine BETA CrossLaps ELISA, IDS Nordic). The quantification of NTX-I in monkey samples was performed using a commercially available kit (Osteomark NTx Urine, Wampole Laboratories, Inc, Princeton, USA). Urinary levels of CTX-II in monkey samples were measured using a commercially available kit (Urine CrossLaps EIA, IDS Nordic). The concentrations of biomarkers in the urine samples were corrected for creatinine concentrations. The creatinine levels in urine were determined at Swedish University of Agricultural Sciences, using the enzymatic assay (cat no. 8L24-01) on the Abbott system Architect c4000.

[3] = target: T1, human cathepsin F (Homo sapiens, UniProt Q9UBX1); test: Enzyme assay, human cathepsin F; type: biochemical
T1 construct: made in house
Excerpt: Recombinant cathepsin K enzymes from all species were expressed in E. coli, purified and activated. Human cathepsin F and cathepsin S were expressed in Baculovirus, purified and activated. Purified human cathepsins B and H (Athens Research Technology), cathepsin L (Calbiochem), and cathepsin V (R & D Systems) were purchased.
H-D-Ala_Leu-Lys-AMC was used as the substrate in assays of cathepsin K from non-rodent species (human, dog, rabbit and guinea pig), and Z-Leu-Arg-AMC was used as the substrate in assays of cathepsin K from rodent species (mouse and rat). […]
Assays were carried out in white polystyrene 96-well plates in a final volume of 100 µL. […] Plates were read in a Fluoroskan Ascent (Thermo Labsystems, Helsinki, Finland) in kinetic mode, with excitation and emission filters of 390 and 460 nm, respectively. Rates were determined by linear regression of the fluorescence/time data in Excel. Rates were fitted by non-linear regression to either the competitive inhibition equation, with the substrate concentration fixed at the value in the assay and the KM fixed to the value previously determined, or the IC50 equation using GraphPad Prism (GraphPad, version 6, San Diego, USA) to obtain Ki or IC50 values, respectively.

[4] = system: > 70 different ion channels, receptors, transporters and CYP enzymes; test: PanLabs broad panel; conditions: 10 µmol/L
Protocol: MIV-711 was analyzed against > 70 different ion channels, receptors, transporters and cytochrome P450 (CYP) enzymes at a concentration of 10 µmol/L at PanLabs (Taipei, Taiwan).

[5] = 30 µmol/kg p.o. once daily, Day 5

T1 sequence (Q9UBX1 271-484): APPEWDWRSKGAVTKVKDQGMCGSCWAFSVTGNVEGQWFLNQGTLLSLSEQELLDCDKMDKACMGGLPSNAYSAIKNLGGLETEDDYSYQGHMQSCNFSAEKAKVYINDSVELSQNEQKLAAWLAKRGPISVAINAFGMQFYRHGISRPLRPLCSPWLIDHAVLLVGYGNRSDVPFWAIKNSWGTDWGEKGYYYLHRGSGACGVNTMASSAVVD

## C#C[C@@H]1CN(C(=O)[C@H](CC(C)C)NC(=O)c2ccc(-c3nc(N4CCN(C)CC4)sc3F)cc2)[C@@H]2C(=O)CO[C@H]12 [MIV-711]
[1]; 30 µmol/kg p.o. once daily for 5 days, creatinine-corrected
  Reduction of urinary CTX-I compared to vehicle: 93%
[1]; single dose 30 µmol/kg p.o. (Day 1)
  Effect on urinary CTX-I compared to vehicle: immediately reduced
[2]; 30 µmol/kg p.o. once daily, Day 1, 12 h post dose
  Maximum reduction of plasma CTX-I from baseline: 76%
[2]; [5]
  Maximal reduction of plasma CTX-I vs initial baseline: 67%
  Trough plasma CTX-I lower than baseline: 38%
[2]; 30 µmol/kg p.o., after the first dose on Day 1
  Trough plasma CTX-I lower than baseline: 48%
[3]
  pKi: 5.55
[4]
  Responses (more than 50% inhibition) in broad panel: No significant responses
